Source: patent publication US20220296563A1, “ACYLATED ACTIVE AGENTS AND METHODS OF THEIR USE FOR THE TREATMENT OF METABOLIC DISORDERS AND NONALCOHOLIC FATTY LIVER DISEASE” (Flagship Pioneering Innovations V, Inc., priority 2019, published 2022)

Legend:
C57BL/6 mice = test: In vivo evaluation in C57BL/6 mice fed a high-fat diet; details: vs. HFD control group, up to day 84
Experimental: Animals were allowed free access to food and drinking water for the entire study. Animals were weighed on a regular basis, and food and drinking water consumption monitored. Plasma and stool samples were collected at the beginning of the study and 42 days into the study. Additional blood was drawn from fasted mice 58 days into the study. Insulin tolerance tests were performed 72 or 73 days into the study. Following an approximate 4 h fast, 0.5 Units/kg insulin was administered intraperitoneally. Blood was collected pre-insulin challenge (t=0) and at t=15, 30, 60, 90, and 120 min following insulin challenge. Oral glucose tolerance tests were performed 79 or 80 days into the study. Following an approximate 4 h fast, 2 g/kg glucose was administered by oral gavage. Blood was collected pre-insulin challenge (t=0) and at t=15, 30, 60, 90, and 120 min following glucose challenge. At the end of the study, body weight, food consumption, blood glucose, serum ALT levels, serum AST levels, serum cholesterol (total cholesterol. HDL, and LDL levels), serum triglycerides levels, liver triglyceride levels, liver cholesterol levels, liver weight, subcutaneous were measured in all mice.

Mouse myocyte = Mouse myocyte lipolysis assay; format: cell-based; details: 100 μM, differentiated myocytes
Experimental: Cells were obtained from ATCC and cultured in Dulbecco's Modified Eagle's medium (DMEM) containing 20% fetal bovine serum and 1% penicillin/streptomycin at 37° C. in an incubator with 5% CO2 Once the cells became confluent, they were seeded into a tissue culture treated 96 well plate. The next day, the medium containing DMEM with 2% equine serum was used to start differentiation. Table 2 lists the tested compounds including those that reduced the release of glycerol (+, ++, or +++). The lipolytic rate of muscle triglycerides is associated with metabolic dysfunction including insulin resistance and liver steatosis. Compounds that lower lipolysis of adipocytes may improve metabolic function including improving insulin sensitivity and reducing liver steatosis, thus improving outcomes in patients with diabetes mellitus (e.g., prediabetes or type II diabetes) obesity, and hyperlipidemia.

For `CC(=O)O[C@@H]1OC[C@@H](OC(C)=O)[C@H](OC(C)=O)[C@H]1OC(C)=O` [compound 4], the body weight (C57BL/6 mice) was “induce weight loss”.
With `O=C(O)c1cc(O)ccc1O` [Gentisate] the “Free glycerol % DMSO” value (Mouse myocyte) was “+++ (50%<: +++)”.
